Data: patent publication US7371734B2, “Oligonucleotide compositions and their use for the modulation of immune responses” (Bioniche Life Sciences Inc., priority 2002, dated 2008)
Marks after values point to notes of the source that are not given here.

What was measured:
Assay type in all cases: cell-based
[1] = system: Human dendritic cells; assay: CD80 levels at the DC cell surface (flow cytometry); details: 100 μg, 48 hours
Method: (§1) Human dendritic cells were obtained from Clonetics (San Diego, Calif., USA) and were cultured in the medium recommended by Clonetics. DC were obtained from three different individuals (see Table 1). Major histocompatability typing was performed on each of these individuals and several of the HLA (human leukocyte antigens) types are shown.
DC from individuals B and C were seeded in 1.0 ml at 1.0×10^5 cells/ml in 6-well flat-bottomed tissue culture plates for 48 hours with 100 μg of 6 base N1A, N1B, N2A, N2B, N3A, N3B, N4A, N4B, N5A, N5B, N6A, N6B, N7A or N7B polynucleotides. The level of CD80 at the cell surface was determined after 48 hours of incubation by flow cytometry using a FITC-conjugated monoclonal antibody directed to CD80 (Serotec, Oxford, U.K.) and analyzed by CELLQuest. Results are expressed as the percentage of CD80^hi DC following treatment.

[2] = system: Human dendritic cells; assay: MHC-II levels at the DC cell surface (flow cytometry); details: DC from individual B; 100 μg, 48 hours
Method: as §1
DC from individual B were seeded in 1.0 ml at 1.0×10^5 cells/ml in 6-well flat-bottomed tissue culture plates for 48 hours with 100 μg of 6 base N1A, N1B, N2A, N2B, N3A, N3B, N5A, N5B, N6A, N6B, N7A or N7B polynucleotides. The level of MHC II at the cell surface was determined after 48 hours of incubation by flow cytometry using a FITC-conjugated monoclonal antibody directed to MHC II (Serotec) and analyzed by CELLQuest Pro. Results are expressed as the percentage of MHC II^hi DC following treatment.

[3] = system: Human dendritic cells; assay: Induction of IL-1beta production by DC (ELISA); details: 100 μg, 48 hours
Method: as §1
DC were seeded in 1.0 ml at 1.0×10^5 cells/ml in 6-well flat-bottomed tissue culture plates for 48 hours with 100 μg of 6 base N1A, N1B, N2A, N2B, N3A, N3B, N4A, N4B, N5A, N5B, N6A, N6B, N7A or N7B polynucleotides. Production of IL-1beta was determined in 100 μl of culture supernatant using a commercial ELISA (BioSource, Camarillo, Calif., USA) after 48 hours of incubation. Results are expressed as the “fold” (x) increase in IL-1beta production by treated DC compared to control cells.

[4] = system: Human dendritic cells; assay: Increase in cell size and granularity of DC (flow cytometry); details: 100 μg polynucleotide, 48 hours
Method: as §1
DC were seeded in 1.0 ml at 1.0×10^5 cells/ml in 6-well flat-bottomed tissue culture plates for 48 hours with 100 μg of 6 base N1A, N1B, N2A, N2B, N3A, N3B, N4A, N4B, N5A, N5B, N6A, N6B, N7A or N7B polynucleotides. Cell size (FCS: forward side scatter) and granularity (S SC: side light scatter) were determined by flow cytometry using a FACSCalibur and analyzed using the CELLQuest Pro software (both from Becton-Dickinson, San Diego, Calif., USA). Percentage of DC showing a FCS>500 units and a SSC>400 units have been determined after treatment with 3-OH, 5-OH polynucleotides for DC isolated from three different individuals.

[5] = system: Human dendritic cells; assay: Endocytosis of FITC-dextran by DC; details: DC from individual B, 100 μg, 24 hours, untreated control = 100
Method: as §1
DC from individual B were seeded in 1.0 ml at 1.0×10^5 cells/ml in 6-well flat-bottomed tissue culture plates for 24 hours with 1 mg/ml of FITC-dextran (20 kDa; Sigma-Aldrich) in the absence or presence of 100 μg of 6 base N2A, N2B, N3A, N3B, N5A, N5B, and N6B polynucleotides at 4° C. (control cell surface binding of FITC-dextran) and 37° C. (to assess endocytosis). Cells were washed three times with ice-cold phosphate buffered saline and analyzed by flow cytometry using CELLQuest Pro. Results are expressed as relative endocytic rate (normalized Δ Mean Fluorescence Value (Δ MFV)). Δ MFV=MFV of DC exposed to FITC-dextran at 37° C.−MFV of DC exposed to FITC-dextran at 4° C. Δ MFV=(ΔMFVsequence/ΔMFVcontrol)×100.

[6] = system: Human dendritic cells; assay: CD40 levels at the DC cell surface (flow cytometry); details: 100 μg, 48 hours
Method: as §1
DC from individuals B and C were seeded in 1.0 ml at 1.0×10^5 cells/ml in 6-well flat-bottomed tissue culture plates for 48 hours with 100 μg of 6 base N1A, N1B, N2A, N2B, N3A, N3B, N4A, N4B, N5A, N5B, N6A, N6B, N7A or N7B polynucleotides. The level of CD40 at the cell surface was determined after 48 hours of incubation by flow cytometry (FACSCalibur system) using a FITC-conjugated monoclonal antibody directed to CD40 and analyzed by CELLQuest Pro (all from Becton Dickinson). Results are expressed as the percentage of CD40^hi DC following treatment. The term “CD40^hi” refers to a population of cells identified by flow cytometry as having higher than baseline expression of CD40.

[7] = system: Human dendritic cells; assay: Induction of IL-12 production by DC (ELISA); details: 100 μg, 48 hours
Method: as §1
DC were seeded in 1.0 ml at 1.0×10^5 cells/ml in 6-well flat-bottomed tissue culture plates for 48 hours with 100 μg of 6 base N1A, N1B, N2A, N2B, N3A, N3B, N4A, N4B, N5A, N5B, N6A, N6B, N7A or N7B polynucleotides. Production of IL-12 was determined in 100 μl of culture supernatant using a commercial ELISA (BioSource) after 48 hours of incubation. Results are expressed as the “fold” (x) increase in IL-12 production by treated DC compared to control cells.

[8] = system: Human dendritic cells; assay: Induction of IFN-gamma production by DC (ELISA); details: 100 μg, 48 hours
Method: as §1
DC were seeded in 1.0 ml at 1.0×10^5 cells/ml in 6-well flat-bottomed tissue culture plates for 48 hours with 100 μg of6 base N1A, N1B, N2A, N2B, N3A, N3B, N4A, N4B, N5A, N5B, N6A, N6B, N7A or N7B polynucleotides. Production of IFN-gamma was determined in 100 μl of culture supernatant using a commercial ELISA (BioSource) after 48 hours of incubation. Results are expressed as the “fold” (x) increase in IFN-gamma production by treated DC compared to control cells.

[9] = system: Human dendritic cells; assay: CD86 levels at the DC cell surface (flow cytometry); details: 100 μg, 48 hours
Method: as §1
DC from individuals B and C were seeded in 1.0 ml at 1.0×10^5 cells/ml in 6-well flat-bottomed tissue culture plates for 48 hours with 100 μg of 6 base N1A, N1B, N2A, N2B, N3A, N3B, N4A, N4B, N5A, N5B, N6A, N6B, N7A or N7B polynucleotides. The level of CD86 at the cell surface was determined after 48 hours of incubation by flow cytometry using a PE-conjugated monoclonal antibody directed to CD86 (Serotec) and analyzed by CELLQuest Pro. Results are expressed as the percentage of CD86^hi DC following treatment.

| Substance | The percentage of CD80^hi DC following treatment ([1]; DC from individual B) [%] | The percentage of CD80^hi DC following treatment ([1]; DC from individual C) | The percentage of MHC-II^hi DC following treatment [2] | IL-1beta production by DC (fold increase compared to untreated DC) ([3]; DC isolated from individual A) [fold] | IL-1beta production by DC (fold increase compared to untreated DC) ([3]; DC isolated from individual B) [fold] | IL-1beta production by DC (fold increase compared to untreated DC) ([3]; DC isolated from individual C) [fold] | Percentage of DC showing a FCS > 500 units and a SSC > 400 units ([4]; DC isolated from individual A) [%] | Percentage of DC showing a FCS > 500 units and a SSC > 400 units ([4]; DC isolated from individual B) [%] | Percentage of DC showing a FCS > 500 units and a SSC > 400 units ([4]; DC isolated from individual C) [%] | Relative endocytic rate (normalized Δ MFV) [5] | The percentage of CD40^hi DC following treatment ([6]; DC from individual B) | The percentage of CD40^hi DC following treatment ([6]; DC from individual C) | IL-12 production by DC (fold increase compared to untreated DC) ([7]; DC isolated from individual A) [fold] | IL-12 production by DC (fold increase compared to untreated DC) ([7]; DC isolated from individual B) [fold] | IL-12 production by DC (fold increase compared to untreated DC) ([7]; DC isolated from individual C) [fold] | IFN-gamma production by DC (fold increase compared to untreated DC) ([8]; DC isolated from individual A) [fold] | IFN-gamma production by DC (fold increase compared to untreated DC) ([8]; DC isolated from individual B) [fold] | IFN-gamma production by DC (fold increase compared to untreated DC) ([8]; DC isolated from individual C) [fold] | The percentage of CD86^hi DC following treatment ([9]; DC from individual B) [%] | The percentage of CD86^hi DC following treatment ([9]; DC from individual C) [%] |
| --- | --- | --- | --- | --- | --- | --- | --- | --- | --- | --- | --- | --- | --- | --- | --- | --- | --- | --- | --- | --- |
| 5′GGGGGG3′ [N5A] (unmodified DNA) | 18 | 14% | 19% | 1.1 | 1.1 | 1.0 | 10 | 19 | 36 | 209 | 40** % | 30** % | 0.9 | 1.1 | 1.0 | 1.1 | 1.1 | 1.0 | 20 | 16 |
| 5′GGGCGG3′ [N7B] (DNA, all phosphorothioate, methylation of C not given here) | 5 | 5% | 31** % | 1.1 | – | 0.9 | 16 | – | 31 | – | – | 18% | 1.8 | – | 1.0 | 1.1 | – | 1.1 | – | 34 |
| 5′GGCCGG3′ [N4A] (DNA, all phosphodiester, methylation of C not given here) | 11 | 21** % | – | 0.9 | – | 1.0 | 4 | – | 19 | – | – | 16% | 1.2 | – | 1.0 | 1.0 | – | 1.0 | – | 23 |
| 5′GGCCGG3′ [N4B] (DNA, all phosphorothioate, methylation of C not given here) | 9 | 13% | – | 1.0 | – | 1.0 | 4 | – | 32 | – | – | 16% | 1.3 | – | 2.6 | 1.0 | – | 1.0 | – | 32 |
| 5′ GTGTGT3′ [N1B] | 11 | 13% | 7% | 1.0 | 1.0 | 1.0 | 5 | 17 | 25 | – | 31** % | 18% | 1.5 | 1.3 | 1.1 | 0.9 | 1.0 | 1.0 | 19 | 27 |
